Common to all, as to format: physicochemical
Data set [1] can be described thus: Xenon light resistance test, inks of Examples 1, 2 (Table 48). The conditions noted are these: xenon 100 klux, 168 hours, 24° C., 60% RH, 55% density gradation, grade of coloring matter persistence rate; for Results from light resistance tests, Glossy paper 3: ink on Brother BP71G; for Results from light resistance tests, Glossy paper 1: ink on Canon Photograph paper, platinum grade (PT-201); for Results from light resistance tests, Glossy paper 4: ink on FUJIFILM Gasai Photo-finishing Pro; for Results from light resistance tests, Glossy paper 2: ink on Seiko Epson Photograph paper Crispia. As to the method:
Components shown in Table 47 below were mixed to obtain solutions, which were then subjected to precision filtration through 0.45 μm membrane filters to prepare inks of Examples 1, 2 and Comparative Examples 1, 2. The numerical values in the table are in terms of “parts,” and the symbol “-” means that that component is not included. In Table 47 below, the component […] is indicated as “remainder”.
Ink-jet recording was performed with an ink-jet printer (Canon, Inc., Product name: PIXUS ip7230) to allow each of the inks from Examples 1, 2 and Comparative Examples 1, 2 to be attached on the following glossy papers 1 to 4. Upon performing recording, image patterns were created so that the density can be obtained in a gradation of 6 levels: 100%, 85%, 70%, 55%, 40%, and 25% to obtain a half-tone recorded article. The resulting recorded article was used as a test piece to perform the following tests.
(§1) Glossy paper 1: Canon, Inc., Product name: Canon Photograph paper, platinum grade (PT-201)
(§2) Glossy paper 2: Seiko Epson Corporation, Product name: Photograph paper Crispia
(§3) Glossy paper 3: Brother Industries, Ltd., Product name: BP71G
(§4) Glossy paper 4: FUJIFILM Corporation, Product name: Gasai Photo-finishing Pro
When required, color measurements were performed for a recorded image using a colorimeter (Product name SpectroEye from X-rite, Inc.). Color measurements were performed under the conditions of a density standard of ANSI A, a wide viewing angle of 2 degrees, a light source of D50.
A test piece with a holder was placed in a xenon weatherometer XL75 (Suga Test Instruments Co., Ltd.), and irradiated for 168 hours at a temperature of 24° C., a humidity of 60% RH, and an illuminance of 100 klux. A gradation portion with a density of 55% of each test piece was subjected to color measurements of reflection densities before and after the test. A coloring matter persistence rate was computed from the reflection densities obtained, and evaluation was performed using the following 3-grade criteria.
A coloring matter persistence rate of 85% or more: A A coloring matter persistence rate of 81% or more and less than 85%: B
A coloring matter persistence rate of less than 81%: C
(Formula for Computing Coloring Matter Persistence Rate) Coloring matter persistence rate (%)=(reflection density after test/reflection density before test)×100

Data set [2] is described as follows: Xenon light resistance test, ink of Example 4 (Table 50). The conditions noted are these: for each glossy paper (Table 50). As to the method: An ink of Example 4 was prepared as in Example 1 except that the compound represented by the above formula (104) was used instead of the compound represented by the above formula (101).
Ink-jet recording was performed with an ink-jet printer (Canon, Inc., Product name: PIXUS ip7230) to allow each of the inks from Examples 4 and Comparative Examples 1, 2 above to be attached on the following glossy papers 1 to 4. Upon performing recording, image patterns were created so that the density can be obtained in a gradation of 6 levels: 100%, 85%, 70%, 55%, 40%, and 25% to obtain a half-tone recorded article. The resulting recorded article was used as a test piece to perform the following tests.
as §1, §2, §3, §4
When required, color measurements of a recorded image were performed using a colorimeter (Product name SpectroEye from X-rite, Inc.). Color measurements were performed under the conditions of a density standard of DIN NB, a wide viewing angle of 2 degrees, a light source of D65. […]

The nature of data set [3]: Xenon light resistance test, inks of Examples 10 to 12 (Table 53). The following applies: Glossy paper 1 Canon GL-101, 2 Epson Crispia, 3 Brother BP71G. As to the method:
Inks of Examples 10 to 12 were prepared as in Example 1 except that the compounds represented by the above formulae (110) to (112) were used, respectively, instead of the compound represented by the above formula (101).
Ink-jet recording was performed with an ink-jet printer (Canon, Inc., Product name: PIXUS ip7230) to allow each of the inks from Examples 10 to 12 and Comparative Examples 1, 2 above to be attached on the following glossy papers 1 to 3. Upon performing recording, image patterns were created so that the density can be obtained in a gradation of 6 levels: 100%, 85%, 70%, 55%, 40%, and 25% to obtain a half-tone recorded article. The resulting recorded article was used as a test piece to perform the following tests.
(§5) Glossy paper 1: Canon, Inc., Product name: Canon Photograph paper, gold grade (GL-101)
as §2, §3
(§6) When required, color measurements of a recorded image were performed using a colorimeter (Product name SpectroEye from X-rite, Inc.). Color measurements were performed under the conditions of a density standard of ANSI A, a wide viewing angle of 2 degrees, a light source of D50. […]

Data set [4] can be described thus: Xenon light resistance test, ink of Example 13 (Table 54). The following applies: Glossy paper 1 Canon GL-101, 2 Epson Photograph paper <glossy>, 3 FUJIFILM Gasai Photo-finishing Pro. As to the method:
An ink of Example 13 was prepared as in Example 1 except that the compound represented by the above formula (113) was used instead of the compound represented by the above formula (101).
Ink-jet recording was performed with an ink-jet printer (Canon, Inc., Product name: PIXUS ip7230) to allow each of the inks from Example 13 and Comparative Examples 1, 2 above to be attached on the following glossy papers 1 to 3. Upon performing recording, image patterns were created so that the density can be obtained in a gradation of 6 levels: 100%, 85%, 70%, 55%, 40%, and 25% to obtain a half-tone recorded article. The resulting recorded article was used as a test piece to perform the following tests.
as §5
Glossy paper 2: Seiko Epson Corporation, Product name: Photograph paper
Glossy paper 3: FUJIFILM Corporation, Product name: Gasai Photo-finishing Pro
as §6

A short description of data set [5]: Xenon light resistance test, ink of Example 16 (Table 56). On the procedure: An ink of Example 16 was prepared as in Example 1 except that the compound represented by the above formula (116) was used instead of the compound represented by the above formula (101).
Ink-jet recording was performed with an ink-jet printer (Canon, Inc., Product name: PIXUS ip7230) to allow each of the inks from Example 16 and Comparative Examples 1, 2 above to be attached on the following glossy papers 1 to 4. Upon performing recording, image patterns were created so that the density can be obtained in a gradation of 6 levels: 100%, 85%, 70%, 55%, 40%, and 25% to obtain a half-tone recorded article. The resulting recorded article was used as a test piece to perform the following tests.
as §1
Glossy paper 2: Canon, Inc., Product name: Canon Photograph paper, gold grade (GL-101)
Glossy paper 3: Seiko Epson Corporation, Product name: Photograph paper Crispia
Glossy paper 4: Brother Industries, Ltd., Product name: BP71G
as §6

Data set [6] in a line: Xenon light resistance test, ink of Example 17 (Table 57). On the procedure: An ink of Example 17 was prepared as in Example 1 except that the compound represented by the above formula (117) was used instead of the compound represented by the above formula (101).
Ink-jet recording was performed with an ink-jet printer (Canon, Inc., Product name: PIXUS ip7230) to allow each of the inks from Example 17 and Comparative Examples 1, 2 above to be attached on the following glossy papers 1, 2. Upon performing recording, image patterns were created so that the density can be obtained in a gradation of 6 levels: 100%, 85%, 70%, 55%, 40%, and 25% to obtain a half-tone recorded article. The resulting recorded article was used as a test piece to perform the following tests.
as §1
Glossy paper 2: FUJIFILM Corporation, Product name: Gasai Photo-finishing Pro
When required, color measurements of a recorded image were performed using a colorimeter (Product name SpectroEye from X-rite, Inc.). Color measurements were performed under the conditions of a density standard of ANSI A, a wide viewing angle of 2 degrees, a light source of D50.
A test piece with a holder was placed in a xenon weatherometer XL75 (Suga Test Instruments Co., Ltd.), and irradiated for 168 hours at a temperature of 24° C., a humidity of 60% RH, and an illuminance of 100 klux. […]

On to `O=S(=O)(O)CCCOc1cc(N=Nc2ccc(Cl)c(S(=O)(=O)O)c2)c(Cl)cc1Nc1nc(NCCO)nc(Nc2cc(Cl)c(N=Nc3ccc(Cl)c(S(=O)(=O)O)c3)cc2OCCCS(=O)(=O)O)n1` [Comparative Example 1], for which, in data set [1], the “Results from light resistance tests, Glossy paper 3” value is “B (A coloring matter persistence rate of 81% or more and less than 85%)”; the “Results from light resistance tests, Glossy paper 1” value is “B (A coloring matter persistence rate of 81% or more and less than 85%)”; the “Results from light resistance tests, Glossy paper 4” value is “C (A coloring matter persistence rate of less than 81%)”; the “Results from light resistance tests, Glossy paper 2” value was “B (A coloring matter persistence rate of 81% or more and less than 85%)”.
As to `COc1cc(N=Nc2cccc(S(=O)(=O)O)c2)ccc1NC(=O)Nc1ccc(N=Nc2cccc(S(=O)(=O)O)c2)cc1OC` [Comparative Example 2, C.I. Direct Yellow 132], in data set [1], the “Results from light resistance tests, Glossy paper 3” value is “B (A coloring matter persistence rate of 81% or more and less than 85%)”; the “Results from light resistance tests, Glossy paper 1” value was “B (A coloring matter persistence rate of 81% or more and less than 85%)”; the “Results from light resistance tests, Glossy paper 4” value was “B (A coloring matter persistence rate of 81% or more and less than 85%)”; the “Results from light resistance tests, Glossy paper 2” value is given as “C (A coloring matter persistence rate of less than 81%)”.
Turning to `COCCCNc1nc(Nc2cc(Cl)c(N=Nc3ccc(Cl)c(S(=O)(=O)O)c3)cc2OCCCS(=O)(=O)O)nc(Nc2cc(Cl)c(N=Nc3ccc(Cl)c(S(=O)(=O)O)c3)cc2OCCCS(=O)(=O)O)n1` [Example 4], the “light resistance tests, results compared with Comparative Examples 1, 2” value in data set [2] is “better results”.
Take `CCNc1nc(Nc2cc(Cl)c(N=Nc3ccc(Cl)c(S(=O)(=O)O)c3)cc2OCCCS(=O)(=O)O)nc(Nc2cc(Cl)c(N=Nc3ccc(Cl)c(S(=O)(=O)O)c3)cc2OCCCS(=O)(=O)O)n1` [Example 10]: in data set [3], the “light resistance results as compared with Comparative Example 2” value was “better results for each glossy paper”.
Take `O=S(=O)(O)CCCOc1cc(N=Nc2ccc(Cl)c(S(=O)(=O)O)c2)c(Cl)cc1Nc1nc(Nc2cc(Cl)c(N=Nc3ccc(Cl)c(S(=O)(=O)O)c3)cc2OCCCS(=O)(=O)O)nc(NC(CO)CO)n1` [Example 13]: the “light resistance results as compared with Comparative Example 2” value in data set [4] is “better results for each glossy paper”.
Take `O=S(=O)(O)CCCOc1cc(N=Nc2ccc(Cl)c(S(=O)(=O)O)c2)c(Cl)cc1Nc1nc(NCC2CCCO2)nc(Nc2cc(Cl)c(N=Nc3ccc(Cl)c(S(=O)(=O)O)c3)cc2OCCCS(=O)(=O)O)n1` (stereo not drawn) [Example 16]: in data set [5], the “light resistance as compared with Comparative Examples 1, 2 (conclusion)” value is listed as “superior light resistance” and the “light resistance results as compared with Comparative Examples 1, 2” value was “good results for each glossy paper”.
Take `O=S(=O)(O)CCCOc1cc(N=Nc2ccc(Cl)c(S(=O)(=O)O)c2)c(Cl)cc1Nc1nc(Nc2cc(Cl)c(N=Nc3ccc(Cl)c(S(=O)(=O)O)c3)cc2OCCCS(=O)(=O)O)nc(N2CCCC2)n1` [Example 17]: in data set [6], the “light resistance as compared with Comparative Examples 1, 2 (conclusion)” value is on record as “superior light resistance” and the “light resistance results as compared with Comparative Examples 1, 2” value is listed as “good results for each glossy paper”.

(Values after patent publication US11512203B2, “Water-soluble azo compound or salt thereof, ink and recording medium” (Nippon Kayaku Kabushiki Kaisha, priority 2016, dated 2022).)
